# Tested on: NOMO1
# Assay: cell viability relative to DMSO control; higher = less cytotoxic
# Settings: 48 h
# In short: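 NOMO1, SEM and P12-Ichikawa leukemia cells spent at least four passages adapting to each medium before use. They were seeded at 500 cells/well (NOMO1, SEM) or 1000 cells/well (P12-Ichikawa) in 5 μl in 1536-well plates and pin-dosed with library compounds in DMSO at 11 threefold steps from 47 μM down to 0.79 nM. After 48 h at 37°C, CellTiter-Glo One luminescence was read. Viability is reported as a percentage of the DMSO wells on each plate, with cell-free wells as background.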
# [1] = RPMI 5 mM glucose + 10% FBS, 0.000781 µM
# [2] = RPMI 5 mM glucose + 10% FBS, 0.00234 µM
# [3] = RPMI 5 mM glucose + 10% FBS, 0.00702 µM
# [4] = RPMI 5 mM glucose + 10% FBS, 0.0211 µM
# [5] = RPMI 5 mM glucose + 10% FBS, 0.0632 µM
# [6] = RPMI 5 mM glucose + 10% FBS, 0.19 µM
# [7] = RPMI 5 mM glucose + 10% FBS, 0.569 µM
# [8] = RPMI 5 mM glucose + 10% FBS, 1.71 µM
# [9] = RPMI 5 mM glucose + 10% FBS, 5.12 µM
# [10] = RPMI 5 mM glucose + 10% FBS, 15.4 µM
# [11] = RPMI 5 mM glucose + 10% FBS, 46.1 µM
# [12] = RPMI 5 mM glucose + 10% dialyzed FBS, 0.000781 µM
# [13] = RPMI 5 mM glucose + 10% dialyzed FBS, 0.00234 µM
# [14] = RPMI 5 mM glucose + 10% dialyzed FBS, 0.00702 µM
# [15] = RPMI 5 mM glucose + 10% dialyzed FBS, 0.0211 µM
# [16] = RPMI 5 mM glucose + 10% dialyzed FBS, 0.0632 µM
# [17] = RPMI 5 mM glucose + 10% dialyzed FBS, 0.19 µM
# [18] = RPMI 5 mM glucose + 10% dialyzed FBS, 0.569 µM
# [19] = RPMI 5 mM glucose + 10% dialyzed FBS, 1.71 µM
# [20] = RPMI 5 mM glucose + 10% dialyzed FBS, 5.12 µM
# [21] = RPMI 5 mM glucose + 10% dialyzed FBS, 15.4 µM
# [22] = RPMI 5 mM glucose + 10% dialyzed FBS, 46.1 µM
SMILES,cell viability [1],cell viability [2],cell viability [3],cell viability [4],cell viability [5],cell viability [6],cell viability [7],cell viability [8],cell viability [9],cell viability [10],cell viability [11],cell viability [12],cell viability [13],cell viability [14],cell viability [15],cell viability [16],cell viability [17],cell viability [18],cell viability [19],cell viability [20],cell viability [21],cell viability [22]
CCCC[N+]1(C)[C@@H]2CC(OC(=O)[C@H](CO)c3ccccc3)C[C@H]1[C@@H]1O[C@@H]12 (stereo partly drawn),106%,107%,118%,120%,125%,102%,114%,97.9%,93.6%,77.7%,15.6%,120%,124%,136%,127%,129%,118%,121%,122%,117%,105%,22.7%
CNC(=O)c1ccccc1Sc1ccc2c(/C=C/c3ccccn3)n[nH]c2c1,108%,116%,107%,115%,118%,105%,112%,91.5%,74.8%,68.8%,84.2%,103%,119%,123%,109%,104%,100%,107%,74.9%,74.8%,68.8%,67.9%
Cc1cc(-c2ccc(CC(=O)Nc3ccc(-c4cccnc4)cc3)cc2)ccn1,108%,118%,108%,111%,107%,110%,116%,96.4%,84.6%,54.3%,40.9%,119%,131%,124%,110%,134%,103%,106%,110%,91.8%,55.8%,41.7%
COc1ccc2c(c1)CC[C@@H](CN(C)CC(=O)O)[C@H]2c1ccccc1,–,–,–,–,–,–,–,–,–,–,–,120%,125%,125%,101%,127%,130%,125%,123%,85.2%,29.8%,36.6%
CCCCc1ccc(N[S+](=O)([O-])c2ccc(C)c(C(=O)N3CCN(c4cccc(C)c4C)CC3)c2)cc1,–,–,–,–,–,–,–,–,–,–,–,125%,128%,120%,126%,126%,130%,130%,119%,131%,126%,108%
Cc1n[nH]c(C)c1Cc1sc2c(c1C(=O)N1C[C@H](O)CO1)c(=O)n(C)c(=O)n2CC(C)C,107%,105%,102%,100%,102%,102%,109%,99.1%,93.9%,106%,109%,105%,109%,117%,102%,116%,104%,115%,122%,113%,119%,99.7%
COC1=CC(=C2C(=O)N(COC/3=C/C(=O)N4\C=C/C=C(OCCN5CCCCC5)\C4=N3)[S+]([O-])(=O)C2=C1)C(C)C,121%,123%,127%,134%,132%,127%,129%,140%,141%,140%,127%,–,–,–,–,–,–,–,–,–,–,–
Cc1n[nH]c2ccc(-c3cncc(OC[C@@H](N)Cc4c[nH]c5ccccc45)c3)cc12,108%,114%,116%,118%,117%,77.4%,92.6%,33.2%,8.24%,1.64%,1.13%,104%,112%,93.1%,94.6%,93.1%,63.5%,63.6%,29.6%,5.35%,1.27%,0.733%

# Reference: the supplement of paper PMC11451515
